pIC50: −log10 of the molar value. Active and inactive are the calls of the source.
Tests used:
[1] = molecular target: T1, Voltage-gated inwardly rectifying potassium channel KCNH2 (Homo sapiens, UniProt Q12809); settings: Potency;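 note: confirmatory quantitative high-throughput screen measuring inhibition of hERG channel activity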
[2] = Luminescence Cell-Based Dose Confirmation HTS to Identify Inhibitors of Platelet Dense Granule Release. [Related pubchem assays: 1663 (Primary HTS), 1678 (Summary of Project)]; assay type: functional
[3] = molecular target: Luciferin 4-monooxygenase (Photinus pyralis, UniProt P08659); experiment: inhibition of purified Photinus pyralis luciferase – biochemical, luminescence, dose response (AID 1891)
[4] = molecular target: Cytochrome P450 2C19 (Homo sapiens, UniProt P33261); experiment: Cytochrome panel assay with activity outcomes. Panel member name: p450-cyp2c19 Compounds with AC50 equal or less than 10 uM are considered active; assay type: functional; settings: read-out: AC50
[5] = molecular target: fMet-Leu-Phe receptor (Homo sapiens, UniProt P21462); experiment: formyl peptide receptor binders – dose response (AID 519); assay type: functional
[6] = molecular target: Cytochrome P450 2D6 (Homo sapiens, UniProt P10635);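 note: CYP2D6 member of a cytochrome P450 panel assay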
[7] = molecular target: T2, Cannabinoid receptor 1 (Homo sapiens, UniProt P21554); experiment: SAR analysis of antagonists of the Cannabinoid Receptor 1 using an Image-Based Assay - Set 2. [Related pubchem assays (depositor defined):AID2013, AID2026]; assay type: functional
T2 sequence (P21554 whole entry): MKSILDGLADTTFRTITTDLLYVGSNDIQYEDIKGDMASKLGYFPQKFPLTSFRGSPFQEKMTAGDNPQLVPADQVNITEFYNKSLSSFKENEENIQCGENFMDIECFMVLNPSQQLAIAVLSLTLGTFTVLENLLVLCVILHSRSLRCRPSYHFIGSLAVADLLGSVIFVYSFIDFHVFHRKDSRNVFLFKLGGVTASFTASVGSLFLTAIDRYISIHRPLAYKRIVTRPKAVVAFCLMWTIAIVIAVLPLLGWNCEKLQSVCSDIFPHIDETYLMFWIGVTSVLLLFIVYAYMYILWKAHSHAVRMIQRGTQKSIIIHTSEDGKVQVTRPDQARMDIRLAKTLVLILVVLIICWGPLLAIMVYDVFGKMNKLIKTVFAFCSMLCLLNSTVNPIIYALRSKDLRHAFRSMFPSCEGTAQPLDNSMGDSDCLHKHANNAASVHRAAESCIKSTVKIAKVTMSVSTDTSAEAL

[8] = molecular target: Trypsin (Sus scrofa, UniProt P00761); experiment: trypsin protease activity blockade – biochemical, quenched peptide fluorescence, cherry-pick, selectivity assay for Rce1 protease inhibitor project, dose response (AID 488789)
[9] = molecular target: T2, Cannabinoid receptor 1; experiment: SAR analysis of agonists of the Cannabinoid Receptor 1 using an Image-Based Assay - Set 2. [Related pubchem assays (depositor defined):AID2013, AID2026]; assay type: functional
[10] = molecular target: T3, Small ubiquitin-related modifier 1 (Homo sapiens, UniProt P63165); experiment: SUMO1 protein-protein binding blockers, potency – biochemical, FRET, dose response (AID 624383); assay type: functional; settings: read-out: IC50_Mean
T3 sequence (P63165 whole entry): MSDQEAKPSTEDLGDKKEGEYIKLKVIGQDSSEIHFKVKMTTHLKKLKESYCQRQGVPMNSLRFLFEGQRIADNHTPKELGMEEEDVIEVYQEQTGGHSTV

[11] = molecular target: T4, G-protein coupled receptor 55 (Homo sapiens, UniProt Q9Y2T6); experiment: blockade of LPI-induced GPR55 arrestin translocation – imaging, U2OS, beta-arrestin-GFP, LPI agonist, set 2, SAR follow-up (AID 2820); assay type: functional
T4 sequence (Q9Y2T6 whole entry): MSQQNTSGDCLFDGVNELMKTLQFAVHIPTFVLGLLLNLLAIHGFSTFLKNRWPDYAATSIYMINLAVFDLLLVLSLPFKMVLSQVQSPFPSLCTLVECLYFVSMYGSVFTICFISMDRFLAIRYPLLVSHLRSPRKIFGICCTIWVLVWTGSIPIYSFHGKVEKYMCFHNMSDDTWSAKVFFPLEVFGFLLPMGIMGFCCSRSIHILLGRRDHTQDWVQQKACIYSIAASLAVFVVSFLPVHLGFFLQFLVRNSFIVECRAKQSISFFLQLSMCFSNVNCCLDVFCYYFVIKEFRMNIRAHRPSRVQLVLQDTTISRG

[12] = molecular target: T3, Small ubiquitin-related modifier 1; experiment: SUMO1 protein interaction blockers, potency – biochemical, fluorescence polarization, uHTS hits, dose response (AID 624382); assay type: functional; settings: read-out: IC50_Mean
[13] = molecular target: T5, CAAX prenyl protease 2 (Saccharomyces cerevisiae S288c, UniProt Q03530); assay type: biochemical
T5 sequence (Q03530 whole entry): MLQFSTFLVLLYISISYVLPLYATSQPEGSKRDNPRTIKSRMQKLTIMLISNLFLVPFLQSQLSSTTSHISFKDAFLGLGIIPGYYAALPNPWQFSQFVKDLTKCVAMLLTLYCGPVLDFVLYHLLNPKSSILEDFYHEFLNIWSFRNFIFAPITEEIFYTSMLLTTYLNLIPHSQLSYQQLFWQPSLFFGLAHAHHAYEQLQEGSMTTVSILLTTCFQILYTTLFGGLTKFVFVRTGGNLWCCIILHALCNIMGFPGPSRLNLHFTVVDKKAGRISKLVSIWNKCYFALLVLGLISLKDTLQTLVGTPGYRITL

[14] = molecular target: T6, Cannabinoid receptor 2 (Homo sapiens, UniProt P34972); experiment: SAR analysis of agonists of the Cannabinoid Receptor 2 using an Image-Based Assay. [Related pubchem assays (depositor defined):AID2013, AID2026]; assay type: functional
[15] = molecular target: T6, Cannabinoid receptor 2; experiment: SAR analysis of antagonists of the Cannabinoid Receptor 2 using an Image-Based Assay. [Related pubchem assays (depositor defined):AID2013, AID2026]; assay type: functional
[16] = molecular target: T7, G-protein coupled receptor 35 (Homo sapiens, UniProt Q9HC97); experiment: SAR analysis of Antagonists of the GPR35 Receptor using an Image-Based Assay - Set 3. [Related pubchem assays (depositor defined):AID2013, AID2026]; assay type: functional
[17] = molecular target: T8, Fatty acid synthase (Homo sapiens, UniProt P49327); experiment: inhibition of human FAS-TE enzyme activity – biochemical, endpoint fluorescence intensity, uHTS hits, dose response (AID 624327); assay type: functional;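 note: fluorescence from hydrolysis of an O-methyl fluorescein acyl ester substrate by the enzyme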
T8 sequence (P49327 whole entry): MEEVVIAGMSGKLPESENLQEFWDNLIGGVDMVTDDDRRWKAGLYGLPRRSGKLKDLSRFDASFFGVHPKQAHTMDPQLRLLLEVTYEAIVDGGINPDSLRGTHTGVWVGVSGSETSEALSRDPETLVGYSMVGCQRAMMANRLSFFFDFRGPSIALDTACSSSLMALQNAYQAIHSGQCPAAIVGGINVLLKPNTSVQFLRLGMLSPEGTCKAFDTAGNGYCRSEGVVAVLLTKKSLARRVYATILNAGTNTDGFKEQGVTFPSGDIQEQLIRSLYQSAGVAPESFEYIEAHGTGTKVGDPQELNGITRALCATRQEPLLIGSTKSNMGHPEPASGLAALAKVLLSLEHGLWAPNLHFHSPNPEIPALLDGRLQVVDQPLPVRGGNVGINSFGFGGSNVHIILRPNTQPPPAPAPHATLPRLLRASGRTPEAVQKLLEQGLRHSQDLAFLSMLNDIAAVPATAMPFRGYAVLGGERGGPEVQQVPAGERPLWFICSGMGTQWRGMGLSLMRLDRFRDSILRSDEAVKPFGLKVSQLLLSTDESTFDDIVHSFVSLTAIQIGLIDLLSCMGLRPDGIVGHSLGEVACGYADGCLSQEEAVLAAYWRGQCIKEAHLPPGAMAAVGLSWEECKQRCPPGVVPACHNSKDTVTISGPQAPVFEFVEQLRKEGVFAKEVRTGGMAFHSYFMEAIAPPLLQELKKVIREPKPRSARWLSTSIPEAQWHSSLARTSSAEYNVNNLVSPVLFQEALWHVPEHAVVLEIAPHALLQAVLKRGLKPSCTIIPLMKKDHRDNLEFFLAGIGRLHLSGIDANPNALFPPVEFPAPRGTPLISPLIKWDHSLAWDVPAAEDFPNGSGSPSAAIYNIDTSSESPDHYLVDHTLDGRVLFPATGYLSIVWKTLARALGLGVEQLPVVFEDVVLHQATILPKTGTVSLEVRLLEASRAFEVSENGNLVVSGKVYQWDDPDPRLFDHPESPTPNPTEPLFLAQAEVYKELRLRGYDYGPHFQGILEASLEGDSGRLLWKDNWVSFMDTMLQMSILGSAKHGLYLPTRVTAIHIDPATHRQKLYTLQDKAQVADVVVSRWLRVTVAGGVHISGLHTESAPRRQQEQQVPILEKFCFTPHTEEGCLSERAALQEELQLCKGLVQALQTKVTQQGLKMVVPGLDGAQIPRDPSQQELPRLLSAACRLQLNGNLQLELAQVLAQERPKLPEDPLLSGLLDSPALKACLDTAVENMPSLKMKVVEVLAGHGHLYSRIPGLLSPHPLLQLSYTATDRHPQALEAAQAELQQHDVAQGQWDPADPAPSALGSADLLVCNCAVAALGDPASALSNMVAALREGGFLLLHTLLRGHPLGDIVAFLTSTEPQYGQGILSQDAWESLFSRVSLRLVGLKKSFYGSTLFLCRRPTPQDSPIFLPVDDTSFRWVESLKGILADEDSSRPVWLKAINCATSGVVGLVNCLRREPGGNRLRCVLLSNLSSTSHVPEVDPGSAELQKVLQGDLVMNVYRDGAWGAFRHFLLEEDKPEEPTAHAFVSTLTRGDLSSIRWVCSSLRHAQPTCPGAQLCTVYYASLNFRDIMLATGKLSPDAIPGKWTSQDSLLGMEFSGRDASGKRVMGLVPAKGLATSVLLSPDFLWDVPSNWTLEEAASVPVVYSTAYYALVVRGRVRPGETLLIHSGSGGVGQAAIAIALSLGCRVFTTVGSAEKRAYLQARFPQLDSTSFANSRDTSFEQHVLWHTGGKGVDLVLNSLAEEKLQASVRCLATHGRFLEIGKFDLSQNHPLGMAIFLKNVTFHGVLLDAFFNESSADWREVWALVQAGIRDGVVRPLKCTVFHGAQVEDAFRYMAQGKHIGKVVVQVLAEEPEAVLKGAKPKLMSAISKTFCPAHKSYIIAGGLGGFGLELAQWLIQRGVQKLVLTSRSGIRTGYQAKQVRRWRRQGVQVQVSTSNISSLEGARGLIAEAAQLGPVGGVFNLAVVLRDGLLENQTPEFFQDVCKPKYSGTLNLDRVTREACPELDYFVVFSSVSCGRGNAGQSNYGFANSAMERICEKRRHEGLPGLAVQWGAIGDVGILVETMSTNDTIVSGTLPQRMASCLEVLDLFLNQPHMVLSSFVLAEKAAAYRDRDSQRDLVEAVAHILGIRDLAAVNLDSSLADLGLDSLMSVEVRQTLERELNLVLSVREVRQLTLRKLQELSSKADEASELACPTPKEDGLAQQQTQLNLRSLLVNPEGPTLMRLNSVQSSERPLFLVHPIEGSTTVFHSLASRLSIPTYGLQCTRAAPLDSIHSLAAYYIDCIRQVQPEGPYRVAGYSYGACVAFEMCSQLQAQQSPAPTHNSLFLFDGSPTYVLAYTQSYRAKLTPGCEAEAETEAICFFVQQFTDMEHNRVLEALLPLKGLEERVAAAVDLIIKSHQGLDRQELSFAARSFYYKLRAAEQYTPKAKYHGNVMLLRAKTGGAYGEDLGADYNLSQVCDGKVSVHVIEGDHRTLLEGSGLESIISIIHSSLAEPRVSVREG

[18] = molecular target: T4, G-protein coupled receptor 55; experiment: inhibition of LPI-stimulated GPR55 beta-arrestin translocation – imaging, U2OS, beta-arrestin-GFP, LPI agonist, primary screen (AID 2013); assay type: functional;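 note: antagonist potency measured as reduced agonist-driven arrestin aggregation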
[19] = molecular target: T8, Fatty acid synthase; experiment: inhibition of human FAS-TE enzyme activity – biochemical, kinetic fluorescence intensity, dose response (AID 624326); assay type: functional;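 note: rate of fluorescence rise from hydrolysis of a fluorogenic O-methyl fluorescein ester substrate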
[20] = molecular target: T9, Streptokinase A (Streptococcus pyogenes serotype M1, UniProt P10520); experiment: viability-normalized secreted streptokinase activity reduction – plasminogen activation absorbance, OD405, dose response (AID 1914); assay type: functional, Streptococcus pyogenes M1 GAS;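 note: secreted streptokinase activity via plasminogen activation per viability signal from cell pellet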
T9 sequence (P10520 whole entry): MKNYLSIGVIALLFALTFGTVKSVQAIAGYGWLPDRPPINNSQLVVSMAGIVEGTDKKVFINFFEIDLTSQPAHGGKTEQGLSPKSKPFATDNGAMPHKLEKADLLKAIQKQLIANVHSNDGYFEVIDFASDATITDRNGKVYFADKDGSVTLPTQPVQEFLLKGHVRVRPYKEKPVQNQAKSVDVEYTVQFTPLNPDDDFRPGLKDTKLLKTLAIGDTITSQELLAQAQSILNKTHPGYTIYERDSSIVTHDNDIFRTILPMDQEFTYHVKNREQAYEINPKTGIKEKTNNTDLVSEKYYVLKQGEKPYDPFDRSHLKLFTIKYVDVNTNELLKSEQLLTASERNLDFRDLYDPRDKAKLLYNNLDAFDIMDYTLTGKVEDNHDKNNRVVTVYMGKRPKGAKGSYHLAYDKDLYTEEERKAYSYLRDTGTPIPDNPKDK

[21] = tested on: Streptococcus; experiment: GAS UMAA2166 growth inhibition – luminescence, BacTiterGlo, counter-screen for streptokinase expression inhibitor project, dose response (AID 1915); assay type: functional, organism-based; settings: read-out: EC50;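 note: potency for reduction of bacterial viability or growth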
[22] = molecular target: T7, G-protein coupled receptor 35; experiment: SAR analysis of Agonists of the GPR35 Receptor using an Image-Based Assay - Set 2. [Related pubchem assays (depositor defined):AID2013, AID2026]; assay type: functional
[23] = molecular target: T10, Delta-type opioid receptor (Homo sapiens, UniProt P41143); experiment: HTS Image-Based Screen for Antagonists of the DOR Receptor. [Related pubchem assays (depositor defined):AID1777, AID1785, AID1786, AID2133]; assay type: functional
[24] = molecular target: T1, Voltage-gated inwardly rectifying potassium channel KCNH2; experiment: concentration-dependent hERG rescue from blockers – cell-based, thallium flux, dose response (AID 2121); assay type: ADME
[25] = molecular target: T10, Delta-type opioid receptor; experiment: HTS Image-Based Screen for Agonists of the DOR Receptor. [Related pubchem assays (depositor defined):AID1777, AID1786, AID2133]; assay type: functional
[26] = molecular target: Beta-galactosidase (Escherichia coli, UniProt Q8VNN2); assay type: functional
[27] = molecular target: T11, Kappa-type opioid receptor (Homo sapiens, UniProt P41145); assay type: functional
T11 sequence (P41145 whole entry): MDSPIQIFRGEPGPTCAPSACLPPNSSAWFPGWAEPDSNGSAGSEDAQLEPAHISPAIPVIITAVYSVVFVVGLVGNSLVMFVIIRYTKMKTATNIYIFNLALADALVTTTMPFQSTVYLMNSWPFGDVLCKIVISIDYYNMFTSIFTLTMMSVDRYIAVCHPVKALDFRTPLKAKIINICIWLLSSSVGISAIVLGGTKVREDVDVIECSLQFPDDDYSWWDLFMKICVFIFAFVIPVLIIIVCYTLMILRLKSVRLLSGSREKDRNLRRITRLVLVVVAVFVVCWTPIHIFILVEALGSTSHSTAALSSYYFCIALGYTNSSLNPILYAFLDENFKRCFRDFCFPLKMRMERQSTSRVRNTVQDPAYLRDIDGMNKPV

[28] = loss of viability in HepG2 cells – cell-based, CellTiter-Glo, cherry-picked, cytotoxicity control for Shn3 inhibitor project, dose response (AID 624134); assay type: functional
[29] = molecular target: T11, Kappa-type opioid receptor; assay type: functional; remark: listed apart in the source
[30] = molecular target: T12, Heat shock factor protein 1 (Mus musculus, UniProt P38532); experiment: enhancement of HSF1-driven luciferase signal – cell-based, NIH3T3, luminescence, dose retest, confirmation (AID 435004); assay type: functional;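 note: stress induced by proteasome inhibitor MG132 added 30 min after compound; luciferase reporter driven by HSF1 response element in NIH3T3 cells; actives raise luminescence as potentiators of the MG132 stress response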
T12 sequence (P38532 whole entry): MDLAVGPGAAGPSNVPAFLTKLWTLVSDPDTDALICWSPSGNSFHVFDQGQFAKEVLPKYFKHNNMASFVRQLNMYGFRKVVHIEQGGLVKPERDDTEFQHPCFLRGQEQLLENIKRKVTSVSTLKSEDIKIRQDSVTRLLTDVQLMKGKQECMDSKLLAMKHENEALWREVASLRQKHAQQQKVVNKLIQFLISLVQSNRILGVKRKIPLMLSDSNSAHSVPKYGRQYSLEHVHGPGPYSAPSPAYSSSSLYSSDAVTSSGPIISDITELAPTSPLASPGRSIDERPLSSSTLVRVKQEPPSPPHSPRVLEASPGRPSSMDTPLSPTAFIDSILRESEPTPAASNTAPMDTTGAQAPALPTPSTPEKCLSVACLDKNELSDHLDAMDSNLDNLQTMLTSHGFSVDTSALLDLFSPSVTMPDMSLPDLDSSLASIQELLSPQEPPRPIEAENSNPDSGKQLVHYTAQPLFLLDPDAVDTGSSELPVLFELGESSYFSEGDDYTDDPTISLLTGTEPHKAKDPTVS

[31] = molecular target: E3 ubiquitin-protein ligase Mdm2 (Homo sapiens, UniProt Q00987); experiment: MDM2-luc reporter signal enhancers, multi-concentration potency testing, MDM2 ubiquitin-protein ligase inhibitor program, whole-cell format, luminescence detection, 384-well microplate (AID 1394); assay type: functional;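 note: MDM2 E3 inhibitors raise luminescence so EC50 is for signal enhancement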
[32] = reduction of Shn3 3'UTR-driven luciferase in osteoblasts – cell-based, Clone20 osteoblasts, firefly luciferase, cherry-picked, dose response (AID 624132); assay type: functional;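 note: firefly luciferase luminescence from reporter carrying the Shn3 3'UTR in osteoblasts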
[33] = non-specific 3'UTR reporter inhibition in Clone20-Shn3RL – cell-based, Renilla luciferase, cherry-picked, counter-screen for Shn3 inhibitor project, dose response (AID 624133); assay type: functional
[34] = tested on: Streptococcus sp. 'group A'; experiment: Streptococcus pyogenes SK(-)GAS viability under kanamycin – luminescence, BacTiterGlo, confirmation, counter-screen for streptokinase expression inhibitor project, dose response (AID 1900); assay type: functional, organism-based
[35] = molecular target: Induced myeloid leukemia cell differentiation protein Mcl-1 (Homo sapiens, UniProt Q07820); assay type: functional
[36] = molecular target: Mu-type opioid receptor (Homo sapiens, UniProt P35372); experiment: HTS Image-Based Screen for Agonists of the MOR Receptor. [Related pubchem assays (depositor defined):AID1777, AID1785, AID1786, AID2133]; assay type: functional;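 note: imaging of beta-arrestin GFP recruitment into spots after receptor activation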
[37] = tested on: Vero; experiment: cells; assay type: functional; settings: Chlorocebus sabaeus
[38] = Luminescence Cell-Based Dose Retest to Confirm Inhibitors of Cancer Stem Cells. [Related pubchem assays (depositor defined):AID2717, AID2721]; assay type: functional; settings: Homo sapiens
[39] = viability loss of HMLE_sh_eGFP cells – cell-based, luminescence, counter-screen for HMLE_sh_ECad selective toxicity project, dose response (AID 463074); assay type: functional, Homo sapiens;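 note: HMLE human mammary epithelial cells expressing control shRNA against eGFP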

T1 sequence (Q12809 whole entry): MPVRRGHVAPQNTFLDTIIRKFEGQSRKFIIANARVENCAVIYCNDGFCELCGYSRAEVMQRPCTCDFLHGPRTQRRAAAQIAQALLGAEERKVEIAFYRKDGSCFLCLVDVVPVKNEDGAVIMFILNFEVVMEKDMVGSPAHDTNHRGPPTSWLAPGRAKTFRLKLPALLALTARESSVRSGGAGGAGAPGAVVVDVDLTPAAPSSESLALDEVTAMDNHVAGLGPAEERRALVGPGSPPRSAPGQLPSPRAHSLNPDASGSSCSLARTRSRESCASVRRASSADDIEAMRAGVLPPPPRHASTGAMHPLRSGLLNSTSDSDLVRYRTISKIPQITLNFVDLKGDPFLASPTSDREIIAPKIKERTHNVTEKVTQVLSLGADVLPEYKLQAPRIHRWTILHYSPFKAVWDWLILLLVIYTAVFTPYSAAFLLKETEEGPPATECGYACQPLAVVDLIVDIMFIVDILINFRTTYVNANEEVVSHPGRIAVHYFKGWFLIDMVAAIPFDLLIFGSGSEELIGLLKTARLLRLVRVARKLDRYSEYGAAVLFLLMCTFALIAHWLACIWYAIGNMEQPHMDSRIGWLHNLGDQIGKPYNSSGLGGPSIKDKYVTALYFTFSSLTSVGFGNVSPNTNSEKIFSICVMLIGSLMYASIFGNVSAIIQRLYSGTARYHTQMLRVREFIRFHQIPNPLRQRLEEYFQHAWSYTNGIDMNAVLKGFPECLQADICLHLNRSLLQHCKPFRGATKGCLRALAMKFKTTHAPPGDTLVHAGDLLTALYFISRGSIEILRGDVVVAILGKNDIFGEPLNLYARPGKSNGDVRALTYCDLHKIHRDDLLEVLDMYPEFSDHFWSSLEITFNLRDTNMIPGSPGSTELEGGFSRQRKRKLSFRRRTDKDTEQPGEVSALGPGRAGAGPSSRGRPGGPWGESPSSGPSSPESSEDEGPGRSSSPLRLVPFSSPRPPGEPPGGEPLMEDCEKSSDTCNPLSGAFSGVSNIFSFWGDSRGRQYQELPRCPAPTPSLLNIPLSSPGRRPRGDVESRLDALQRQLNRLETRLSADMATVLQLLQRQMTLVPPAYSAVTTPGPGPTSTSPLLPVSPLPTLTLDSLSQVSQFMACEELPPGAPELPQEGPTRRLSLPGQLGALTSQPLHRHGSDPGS

**Q.** Which AC50 [1] does the source give for `O=C(Cc1ccc(Cl)c(Cl)c1)N1CCCCC1CN1CCCC1` (stereo not given) here?
**A.** 25.1 µM (inconclusive)

**Q.** Which EC50 [2] does the source give for `Cc1ccc(C2C(C(=O)c3sc(C)nc3C)=C(O)C(=O)N2CCN2CCOCC2)o1` (stereo not given) here?
**A.** > 112 µM (not active)

**Q.** And the EC50 [3]?
**A.** > 112 µM (not active)

**Q.** And the AC50 [4]?
**A.** 0.00562 µM (inconclusive)

**Q.** And the Ki [5]?
**A.** > 66.7 µM (inactive)

**Q.** What about the AC50 [6] of the same molecule?
**A.** inconclusive

**Q.** Which results are given for `CC(C)(C)OC(=O)N1CCC(c2cc(O)n3ncc(C(=O)Nc4ccc(F)c(Cl)c4)c3n2)CC1`?
**A.** IC50 [7]: 10.5 µM (inactive); AC50 [8]: 77.2 µM (active); EC50 [9]: > 32 µM (inactive); IC50 [10]: 9.68 µM (active); IC50 [11]: 0.948 µM (active); IC50 [12]: > 66.6 µM (inactive); AC50 [13]: 17.8 µM (active); EC50 [14]: > 32 µM (inactive); IC50 [15]: > 32 µM (inactive); IC50 [16]: 25.4 µM (inactive); IC50 [17]: 8.24 µM (active); IC50 [18]: 1.41 µM (active); IC50 [19]: 5.64 µM (active); EC50 [20]: > 150 µM (not active); EC50 [21]: > 150 µM (not active); EC50 [22]: 5.23 µM (active)

**Q.** Which results are given for `N=C1S/C(=C\c2ccc(-c3cccc(Cl)c3)o2)C(=O)N1c1nccs1`?
**A.** IC50 [23]: > 32 µM (inactive); EC50 [24]: 0.42 µM (active); EC50 [25]: > 32 µM (inactive); EC50 [26]: > 31.5 µM (inactive); pIC50 [27]: < 4.49; AC50 [28]: 13.7 µM (active); IC50 [29]: 5.72 µM (active); EC50 [30]: 5.39 µM (active); EC50 [31]: 0.01 µM (not active); AC50 [32]: 2.82 µM (active); AC50 [33]: 6.17 µM (active); EC50 [34]: < 0.06 µM (active); IC50 [35]: 0.745 µM (active); EC50 [36]: > 32 µM (inactive); EC50 [21]: 0.228 µM (active); CC50 [37]: 4.5 µM (active)

**Q.** Which AC50 [38] does the source give for `Cc1ccc(OCC(=O)NNC(=S)NC(=O)c2cccs2)c(C)c1` here?
**A.** 9.13 µM (active)

**Q.** What about the AC50 [39] of the same molecule?
**A.** 37.8 µM (active)
